Reference: ChEMBL document CHEMBL1148060, “Biosynthetic Study and Radioisotope Labeling of Inostamycin” (J Nat Prod, 1994)

Tested on: NRK
Assay: Cellular uptake in rat NRK cells assessed as [14C]inostamycin level after 2 hrs
Format: ADME, cell-based

Activity: Dose-dependent effect
SMILES: CCC[C@H](O)[C@@]1(CC)C[C@@H](C)[C@](O)([C@]2(C)C[C@H](C)[C@@H]([C@@H](CC)C(=O)[C@@H](C)[C@@H](O)[C@H](C)[C@H]3O[C@@](O)([C@H](CC)C(=O)O)[C@@H](C)[C@H](O)[C@H]3CC)O2)O1 [INOSTAMYCIN]
